Laboratory results as given in ChEMBL document CHEMBL1201862, “PubChem BioAssay data set” (2004).
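These data come from cells grown in 96-well plates and exposed to compound for 48 hours at five concentrations. The concentration for 50% growth inhibition is given as GI50.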 The source made the active and inactive calls. Cut-off read from the data, not from the text of the source: active = GI50 up to about 1.1 µM and inactive = higher.

Assays:
Test in all cases: growth of human tumour cells (NCI), 48 h
SNB-75 = system: SNB-75
DLD-1 = system: DLD-1
DMS-273 = system: DMS-273
NCI-H23 = system: NCI-H23
A549 = system: A549
SW-620 = system: SW-620
CAKI-1 = system: CAKI-1
KM-20L2 = system: KM-20L2
HL-60 = system: HL-60
CCRF-CEM = system: CCRF-CEM
Hs-578T = system: Hs-578T
NCI/ADR-RES = system: NCI/ADR-RES
SN12C = system: SN12C
MDA-MB-231 = system: MDA-MB-231
T47D = system: T47D
A498 = system: A498
786-0 = system: 786-0
ACHN = system: ACHN
UO-31 = system: UO-31
SK-MEL-2 = system: SK-MEL-2
SNB-19 = system: SNB-19
NCI-H226 = system: NCI-H226
OVCAR-5 = system: OVCAR-5
TK-10 = system: TK-10
OVCAR-3 = system: OVCAR-3
HCC 2998 = system: HCC 2998
UACC-62 = system: UACC-62
U-251 = system: U-251
Malme-3M = system: Malme-3M
HOP-62 = system: HOP-62
SK-MEL-5 = system: SK-MEL-5
HOP-18 = system: HOP-18
HOP-92 = system: HOP-92
KM12 = system: KM12
SF-539 = system: SF-539
OVCAR-8 = system: OVCAR-8
M19-MEL = system: M19-MEL
OVCAR-4 = system: OVCAR-4
SF-295 = system: SF-295
SR = system: SR
IGROV-1 = system: IGROV-1
RXF 393 = system: RXF 393
MOLT-4 = system: MOLT-4
M14 = system: M14
NCI-H522 = system: NCI-H522
NCI-H460 = system: NCI-H460
SNB-78 = system: SNB-78
RPMI-8226 = system: RPMI-8226
SF-268 = system: SF-268
COLO 205 = system: COLO 205
UACC-257 = system: UACC-257
PC-3 = system: PC-3
DMS-114 = system: DMS-114
LXFL 529 = system: LXFL 529
SK-OV-3 = system: SK-OV-3
HCT-15 = system: HCT-15
DU-145 = system: DU-145
HCT-116 = system: HCT-116
HT-29 = system: HT-29
K562 = system: K562
SK-MEL-28 = system: SK-MEL-28
MDA-N = system: MDA-N
MDA-MB-435 = system: MDA-MB-435
EKVX = system: EKVX
LOX IMVI = system: LOX IMVI
XF498 = system: XF498

## CC1=CC2=C(OCO1)C(=O)c1ccccc1C2=O
SNB-75
  GI50: 3.66 µM (inactive)
DLD-1
  GI50: 21.5 µM (inactive)
DMS-273
  GI50: 10.5 µM (inactive)
NCI-H23
  GI50: 3.27 µM (inactive)
A549
  GI50: 6.08 µM (inactive)
SW-620
  GI50: 8.09 µM (inactive)
CAKI-1
  GI50: 8.39 µM (inactive)
KM-20L2
  GI50: 22.9 µM (inactive)
HL-60
  GI50: 3.95 µM (inactive)
CCRF-CEM
  GI50: 10.1 µM (inactive)
Hs-578T
  GI50: 1.67 µM (inactive)
NCI/ADR-RES
  GI50: 3.31 µM (inactive)
SN12C
  GI50: 5.68 µM (inactive)
MDA-MB-231
  GI50: 4.13 µM (inactive)
T47D
  GI50: 2.43 µM (inactive)
A498
  GI50: 14.5 µM (inactive)
786-0
  GI50: 12.8 µM (inactive)
ACHN
  GI50: 3.76 µM (inactive)
UO-31
  GI50: 7.94 µM (inactive)
SK-MEL-2
  GI50: 0.652 µM (active)
SNB-19
  GI50: 9.59 µM (inactive)
NCI-H226
  GI50: 10.4 µM (inactive)
OVCAR-5
  GI50: 6.21 µM (inactive)
TK-10
  GI50: 28.1 µM (inactive)
OVCAR-3
  GI50: 5.4 µM (inactive)
HCC 2998
  GI50: 30.5 µM (inactive)
UACC-62
  GI50: 5.11 µM (inactive)
U-251
  GI50: 1.36 µM (inactive)
Malme-3M
  GI50: 2.51 µM (inactive)
HOP-62
  GI50: 6.87 µM (inactive)
SK-MEL-5
  GI50: 1.5 µM (inactive)
HOP-18
  GI50: 12.4 µM (inactive)
HOP-92
  GI50: 10.4 µM (inactive)
KM12
  GI50: 6.71 µM (inactive)
SF-539
  GI50: 6.14 µM (inactive)
OVCAR-8
  GI50: 8.87 µM (inactive)
M19-MEL
  GI50: 1.79 µM (inactive)
OVCAR-4
  GI50: 3.73 µM (inactive)
SF-295
  GI50: 4.17 µM (inactive)
SR
  GI50: 7.82 µM (inactive)
IGROV-1
  GI50: 11 µM (inactive)
RXF 393
  GI50: 4.61 µM (inactive)
MOLT-4
  GI50: 6.84 µM (inactive)
M14
  GI50: 4.73 µM (inactive)
NCI-H522
  GI50: 2.57 µM (inactive)
NCI-H460
  GI50: 7.11 µM (inactive)
SNB-78
  GI50: 33.1 µM (inactive)
RPMI-8226
  GI50: 4.52 µM (inactive)
SF-268
  GI50: 7.5 µM (inactive)
COLO 205
  GI50: 5.86 µM (inactive)
UACC-257
  GI50: 2.79 µM (inactive)
PC-3
  GI50: 3.18 µM (inactive)
DMS-114
  GI50: 3.35 µM (inactive)
LXFL 529
  GI50: 21.7 µM (inactive)
SK-OV-3
  GI50: 13.3 µM (inactive)
HCT-15
  GI50: 14.8 µM
DU-145
  GI50: 2.16 µM (inactive)
HCT-116
  GI50: 7.16 µM (inactive)
HT-29
  GI50: 7.4 µM (inactive)
K562
  GI50: 6.87 µM (inactive)
SK-MEL-28
  GI50: 4.86 µM (inactive)
MDA-N
  GI50: 0.408 µM (active)
MDA-MB-435
  GI50: 1.46 µM (inactive)
EKVX
  GI50: 46.7 µM (inactive)
LOX IMVI
  GI50: 1.02 µM (active)

## CC1(C)N=C(Oc2ccccc2)n2nccc2N1
SNB-75
  GI50: > 100 µM (inactive)
DLD-1
  GI50: > 100 µM (inactive)
DMS-273
  GI50: 66.7 µM (inactive)
NCI-H23
  GI50: > 100 µM (inactive)
A549
  GI50: > 100 µM (inactive)
SW-620
  GI50: > 100 µM (inactive)
CAKI-1
  GI50: > 100 µM (inactive)
KM-20L2
  GI50: > 100 µM (inactive)
HL-60
  GI50: > 100 µM (inactive)
CCRF-CEM
  GI50: > 100 µM (inactive)
SN12C
  GI50: > 100 µM (inactive)
A498
  GI50: > 100 µM (inactive)
786-0
  GI50: 59.4 µM (inactive)
ACHN
  GI50: > 100 µM (inactive)
UO-31
  GI50: > 100 µM (inactive)
SK-MEL-2
  GI50: > 100 µM (inactive)
SNB-19
  GI50: > 100 µM (inactive)
NCI-H226
  GI50: > 100 µM (inactive)
OVCAR-5
  GI50: > 100 µM (inactive)
TK-10
  GI50: > 100 µM (inactive)
OVCAR-3
  GI50: > 100 µM (inactive)
HCC 2998
  GI50: > 100 µM (inactive)
UACC-62
  GI50: 63.4 µM (inactive)
U-251
  GI50: > 100 µM (inactive)
Malme-3M
  GI50: > 100 µM (inactive)
HOP-62
  GI50: > 100 µM (inactive)
SK-MEL-5
  GI50: > 100 µM (inactive)
HOP-18
  GI50: > 100 µM (inactive)
HOP-92
  GI50: > 100 µM (inactive)
KM12
  GI50: > 100 µM (inactive)
SF-539
  GI50: > 100 µM (inactive)
M19-MEL
  GI50: > 100 µM (inactive)
OVCAR-4
  GI50: > 100 µM (inactive)
SF-295
  GI50: > 100 µM (inactive)
SR
  GI50: 61.4 µM (inactive)
IGROV-1
  GI50: > 100 µM (inactive)
RXF 393
  GI50: > 100 µM (inactive)
MOLT-4
  GI50: > 100 µM (inactive)
M14
  GI50: 73.1 µM (inactive)
NCI-H522
  GI50: 40.9 µM (inactive)
NCI-H460
  GI50: 75 µM (inactive)
RPMI-8226
  GI50: > 100 µM (inactive)
SF-268
  GI50: > 100 µM (inactive)
COLO 205
  GI50: 87.1 µM (inactive)
UACC-257
  GI50: > 100 µM (inactive)
DMS-114
  GI50: > 100 µM (inactive)
XF498
  GI50: > 100 µM (inactive)
LXFL 529
  GI50: > 100 µM (inactive)
SK-OV-3
  GI50: > 100 µM (inactive)
HCT-15
  GI50: > 100 µM
HCT-116
  GI50: 51.9 µM (inactive)
HT-29
  GI50: > 100 µM (inactive)
K562
  GI50: 82.8 µM (inactive)
SK-MEL-28
  GI50: > 100 µM (inactive)
EKVX
  GI50: > 100 µM (inactive)
LOX IMVI
  GI50: 53.8 µM (inactive)
